Measured values published in patent US20240174690A1, “ANNULATED 2-AMINO-3-CYANO THIOPHENES AND DERIVATIVES FOR THE TREATMENT OF CANCER” (BOEHRINGER INGELHEIM INTERNATIONAL GMBH, priority 2021, published 2024).

What was measured:
NCI-H2122 cells = experiment: NCI-H2122 CTG proliferation assay (120 h) (NSCLC, G12C); assay type: cell-based; details: Homo sapiens
Experimental: NCI-H2122 CTG Proliferation Assay (120 h) (NSCLC, G12C)
The CTG assay is designed to measure quantitatively the proliferation of NCI-H2122 cells (ATCC CRL-5985), using the CellTiter Glow Assay Kit (Promega G7571). Cells are grown in RPMI medium (ATCC) supplemented with Fetal Calf Serum (Life Technologies, Gibco BRL, Cat. No. 10270-106). On “day 0” 200 NCI-H2122 cells are seeded in 60 μL RPMI ATCC+10% FCS+Penstrep in a black 384-well plate, flat and clear bottom (Greiner, PNr. 781091). Cells are then incubated in the plates at 37° C. in a CO2 incubator overnight. On day 1, compounds (10 mM stock in DMSO) are added with the ECHO acoustic liquid handler system (Beckman Coulter), including DMSO controls. Plates are incubated for 120 h, and cell viability is measured using CellTiter-Glo luminescent cell viability reagent (Promega product code G7570). Viability (stated as percent of control) is defined as relative luminescence units RLU of each well divided by the RLU of cells in DMSO controls. IC50 values are determined from viability measurements by non-linear regression using a four parameter model.

SAS cells = experiment: SAS CTG proliferation assay (120 h) (HNSCC, wt amplified); assay type: cell-based
Experimental: SAS CTG Proliferation Assay (120 h) (HNSCC, Wt Amplified)
(§1) SAS cells (JCRB0260) are dispensed into 384-well plates, flat and clear bottom (Greiner, PNr. 781091) at a density of 300 cells per well in 60 μL DMEM:F12 (Gibco 31330-038)+10% Fetal Calf Serum (HyClone, PNr.: SH30084.03) and incubated at 37° C. in a CO2 incubator overnight. The next day, compounds (10 mM stock in DMSO) are added with the ECHO acoustic liquid handler system (Beckman Coulter), including DMSO controls. Plates are incubated for 120 h, and cell viability is measured using CellTiter-Glo luminescent cell viability reagent (Promega product code G7570). Viability (stated as percent of control) is defined as relative luminescence units RLU of each well divided by the RLU of cells in DMSO controls. IC50 values are determined from viability measurements by non-linear regression using a four-parameter model.

SK-CO-1 cells = experiment: SK-CO-1 CTG proliferation assay (120 h) (CRC, G12V); assay type: cell-based; details: Homo sapiens; SK-CO-1 cells (CRC, G12V), CTG 120 h
Experimental: SK-CO-1 CTG Proliferation Assay (120 h) (CRC, G12V)
as §1, with “SK-CO-1 cells (ATCC” for “SAS cells (JCRB0260)”, “SK-CO-1 cells (ATCC HTB-39) are dispensed” for “SAS cells (JCRB0260) are dispensed”, “density of 500 cells per” for “density of 300 cells per”, “60 μL EMEM (Sigma M5650)+10% Fetal Calf” for “60 μL DMEM:F12 (Gibco 31330-038)+10% Fetal Calf”

[1] = Caco-2 assay (permeability PappAB, PappBA, efflux ratio); assay type: in vitro ADME; details: human, Caco-2, 10 μM test compound, pH 7.4; for Papp A→B at 90 min, 10 μM: apical to basolateral; for efflux ratio at 90 min, 10 μM: efflux ratio PappBA/PappAB, read-out: Caco ER
Description: The assay provides information on the potential of a compound to pass the cell membrane, on the extent of oral absorption as well as on whether the compound is actively transported by uptake and/or efflux transporters. Permeability measurements across polarized, confluent Caco-2 cell monolayers grown on permeable filter supports (Corning, catalog #3391) are used. […] The receiver and donor compartments contain 0.25% bovine serum albumine (BSA) in assay buffer. Passive diffusion and/or active transport of compounds across the monolayer is measured in both apical to basolateral (a-b) and basolateral to apical (b-a) direction. a-b permeability (PappAB) represents drug absorption from the intestine into the blood and b-a permeability (PappBA) drug secretion from the blood back into the intestine via both passive permeability as well as active transport mechanisms mediated by efflux and uptake transporters that are expressed on the Caco-2 cells. After a pre-incubation of 25-30 min at 37° C., at predefined time points (0, 30, 60 and 90 min), samples were taken from the receiver and donor compartment, respectively. Concentrations of test compounds in samples were measured by HPLC/MS/MS, samples from the donor compartment were diluted 1:50 (v:v) with assay buffer, samples from receiver compartment were measured without dilution.
Apparent permeabilities in a-b (PappAB) and b-a (PappBA) directions are calculated according to the formula:
[formula] • Vrec [mL]: buffer volume in receiver compartment • Cdon [μmol/mL]: concentration of test compound in donor compartment at t=0 • ΔCrec: difference between concentrations of test compound in receiver compartment at start and end of incubation time • Δt: Incubation time • Vrec·ΔCrec/Δt [μmol/min]: Amount of compound transferred to receiver compartment per time • A [cm^2]: filter surface
Caco-2 efflux ratios (ER) are calculated as the ratio of PappBA/PappAB.

| SMILES | IC50 (NCI-H2122 cells) [nM] | IC50 (SK-CO-1 cells) [nM] | Papp A→B at 90 min, 10 μM [1] [×10⁻⁶ cm/s] | efflux ratio at 90 min, 10 μM [1] | IC50 (SAS cells) [nM] |
| --- | --- | --- | --- | --- | --- |
| C[C@H](Oc1cc(-n2cc(Cn3cncn3)nn2)nc(-c2noc3c2CCC[C@@]32CCCc3sc(N)c(C#N)c32)n1)[C@@H]1CCCN1C [II-124] | 901 | 38 | 1 | 33.7 | 68 |
| C[C@H](Oc1cc(-n2cncc3ccnc2-3)nc(-c2noc3c2CCC[C@@]32CCCc3sc(N)c(C#N)c32)n1)[C@@H]1CCCN1C [II-105] | 847 | 31 | < 10 | 1.1 | 55 |
| C[C@H](Oc1cc(N2CCN(C)C2=O)nc(-c2noc3c2CCC[C@@]32CCCc3sc(N)c(C#N)c32)n1)[C@@H]1CCCN1C [II-75] | 3130 | 23 | 5 | 5 | 31 |
| C[C@H](Oc1cc(-n2cnc3cccnc32)nc(-c2noc3c2CCC[C@@]32CCCc3sc(N)c(C#N)c32)n1)[C@@H]1CCCN1C [II-65] | 2550 | 360 |  |  | 173 |
| C[C@H](Oc1cc(-c2cn(C3COC3)nn2)nc(-c2noc3c2CCC[C@@]32CCCc3sc(N)c(C#N)c32)n1)[C@@H]1CCCN1C [II-100] | 2140 | 257 |  |  | 3180 |
| C[C@H](Oc1cc(-c2ccn(-c3ccsc3)n2)nc(-c2noc3c2CCC[C@@]32CCCc3sc(N)c(C#N)c32)n1)[C@@H]1CCCN1C [II-84] | 583 | 116 |  |  | 52 |
| C[C@H](Oc1cc(-n2ccnc2Cl)nc(-c2noc3c2CCC[C@@]32CCCc3sc(N)c(C#N)c32)n1)[C@@H]1CCCN1C [II-93] | 1560 | 140 |  |  | 366 |
| C[C@H](Oc1cc(-n2cccc3cnnc2-3)nc(-c2noc3c2CCC[C@@]32CCCc3sc(N)c(C#N)c32)n1)[C@@H]1CCCN1C [II-92] | 1810 | 279 |  |  | 275 |
| C[C@H](Oc1cc(N2CCN3CCC3C2)nc(-c2onc3c2CCC[C@@]32CCCc3sc(N)c(C#N)c32)n1)[C@@H]1CCCN1C (some centres unmarked) [I-9] | 3340 | 10800 |  |  | 20200 |
| C[C@H](Oc1cc(N2CCOC3(CC3)C2)nc(-c2noc3c2CCC[C@@]32CCCc3sc(N)c(C#N)c32)n1)[C@@H]1CCCN1C [II-61] | 2340 | 192 |  |  | 169 |
| Cc1nccn1-c1cc(O[C@@H](C)[C@@H]2CCCN2C)nc(-c2noc3c2CCC[C@@]32CCCc3sc(N)c(C#N)c32)n1 [II-79] | 1270 | 188 |  |  | 2590 |
| C[C@H](Oc1cc(-n2ccncc2=O)nc(-c2noc3c2CCC[C@@]32CCCc3sc(N)c(C#N)c32)n1)[C@@H]1CCCN1C [II-116] | 1120 | 64 |  |  | 2010 |
| C[C@H](Oc1cc(-c2ccn3ncnc3c2)nc(-c2noc3c2CCC[C@@]32CCCc3sc(N)c(C#N)c32)n1)[C@@H]1CCCN1C [II-104] |  |  |  | 4.2 | 114 |

More lines, main results first:

| IC50 (NCI-H2122 cells) [nM] | IC50 (SK-CO-1 cells) [nM] | Papp A→B at 90 min, 10 μM [1] [×10⁻⁶ cm/s] | efflux ratio at 90 min, 10 μM [1] | SMILES | IC50 (SAS cells) [nM] |
| --- | --- | --- | --- | --- | --- |
| 2840 | 872 | 4.7 | 10.8 | C[C@H](Oc1cc(N2CC[C@H](N(C)C)C2)nc(-c2noc3c2CCC[C@@]32CCCc3sc(N)c(C#N)c32)n1)[C@@H]1CCCN1C [II-49] | 1180 |
| 2560 | 772 |  |  | C[C@H](Oc1cc(N2CCNC[C@@]23CCOC3)nc(-c2noc3c2CCC[C@@]32CCCc3sc(N)c(C#N)c32)n1)[C@@H]1CCCN1C [II-51] | 70 |
| 6360 | 24 |  |  | C[C@H](Oc1cc(N2CCNC2=O)nc(-c2noc3c2CCC[C@@]32CCCc3sc(N)c(C#N)c32)n1)[C@@H]1CCCN1C [II-64] | 16 |
| 3390 | 134 |  |  | C[C@H](Oc1cc(N2Cc3cnn(C)c3C2)nc(-c2noc3c2CCC[C@@]32CCCc3sc(N)c(C#N)c32)n1)[C@@H]1CCCN1C [II-63] | 1310 |
| 2860 | 52 |  |  | C[C@H](Oc1cc(-c2cnn(C)c2)nc(-c2noc3c2CCC[C@@]32CCCc3sc(N)c(C#N)c32)n1)[C@@H]1CCCN1C [II-74] | 192 |
| 1610 | 43 |  |  | C[C@H](Oc1cc(N2CCCC2=O)nc(-c2noc3c2CCC[C@@]32CCCc3sc(N)c(C#N)c32)n1)[C@@H]1CCCN1C [II-73] | 33 |
|  |  | < 2.1 |  | C[C@H](Oc1cc(N2CCNCC23CCOC3)nc(-c2onc3c2CCC[C@@]32CCCc3sc(N)c(C#N)c32)n1)[C@@H]1CCCN1C (some centres unmarked) [I-10] |  |
| 3040 | 532 |  |  | C[C@H](Oc1cc(N2C[C@H](C)NC3(CC3)C2)nc(-c2onc3c2CCC[C@@]32CCCc3sc(N)c(C#N)c32)n1)[C@@H]1CCCN1C [I-8] | 131 |
| 1670 | 148 |  |  | C[C@H](Oc1cc(-c2cncs2)nc(-c2noc3c2CCC[C@@]32CCCc3sc(N)c(C#N)c32)n1)[C@@H]1CCCN1C [II-80] | > 25000 |
| 3460 | 1490 |  |  | C[C@H]1CN(C)CCCN1c1cc(N2CCN(C)CC2)nc(-c2onc3c2CCC[C@@]32CCCc3sc(N)c(C#N)c32)n1 [I-7] | 472 |
| 1780 | 40 |  |  | C[C@H](Oc1cc(N2CCOC3(COC3)C2)nc(-c2noc3c2CCC[C@@]32CCCc3sc(N)c(C#N)c32)n1)[C@@H]1CCCN1C [II-77] | 152 |
| 84 | 37 |  |  | C[C@H](Oc1cc(-n2ccc(C#N)n2)nc(-c2noc3c2CCC[C@@]32CCCc3sc(N)c(C#N)c32)n1)[C@@H]1CCCN1C [II-102] | 71 |
| 1860 | 451 |  |  | C[C@H](Oc1cc(N2CCc3cccnc32)nc(-c2noc3c2CCC[C@@]32CCCc3sc(N)c(C#N)c32)n1)[C@@H]1CCCN1C [II-90] | 4390 |
| 2250 | 71 |  |  | C[C@H](Oc1cc(N2CCCC3(COC3)C2)nc(-c2noc3c2CCC[C@@]32CCCc3sc(N)c(C#N)c32)n1)[C@@H]1CCCN1C [II-72] | 206 |
| 1300 | 60 |  |  | C[C@H](Oc1cc(C2=CCOCC2)nc(-c2noc3c2CCC[C@@]32CCCc3sc(N)c(C#N)c32)n1)[C@@H]1CCCN1C [II-67] | 8 |
| 2140 | 84 |  |  | C[C@H](Oc1cc(-c2ccncc2)nc(-c2noc3c2CCC[C@@]32CCCc3sc(N)c(C#N)c32)n1)[C@@H]1CCCN1C [II-78] | 318 |
| 3820 | 447 |  |  | C[C@H](Oc1cc(-c2ccn(C3COC3)n2)nc(-c2noc3c2CCC[C@@]32CCCc3sc(N)c(C#N)c32)n1)[C@@H]1C[C@H](F)CN1C [II-83] | 18 |
